Patent US8609713B2, “Pyrrole derivatives and their methods of use” (AbbVie Inc., priority 2006, dated 2013)

Target: α7 nAChRs (Homo sapiens, UniProt P36544)
Assay: High-throughput calcium flux (FLIPR) assay using IMR-32 cells expressing endogenous α7 nAChRs
Procedure: (i) High-Throughput Calcium Flux Assays Using Cells Expressing Endogenous α7 nAChRs
Any suitable selective α7 agonist can be used.
IMR-32 neuroblastoma cells (ATCC) were grown to confluency in 162 cm^2 tissue culture flasks in minimum essential media supplemented with 10% FBS and 1 mM sodium puruvate, 0.1 mM non-essential amino acids and 1% antibiotic-antimycotic. The cells were then dissociated using cell dissociation buffer and 40 μl of 3.5×10^5 cells/ml cell suspension was plated (˜15,000 cells/well) into black plates with clear bottom and maintained for 48 hours in a tissue culture incubator at 37° C. under an atmosphere of 5% CO2: 95% air. […] Calcium flux was measured using calcium-3 assay kit (Molecular Devices, Sunnyvale, Calif.) or fluo-4. […] Fluorescence measurements were read simultaneously from all the wells by a Fluorometic Imaging Plate Reader (FLIPR) at an excitation wavelength of 480 nm and an emission wavelength of 520 nm. Baseline fluorescence was measured for the first 10 seconds, at which point 5× concentrations of modulator/test compounds were added to the cell plate and incubated for three minutes. The fluorescence intensity was captured every second for the first 1 minute followed by every 5 seconds for an additional 2 minutes. […]

α7 nAChRs, sequence (P36544 23-502): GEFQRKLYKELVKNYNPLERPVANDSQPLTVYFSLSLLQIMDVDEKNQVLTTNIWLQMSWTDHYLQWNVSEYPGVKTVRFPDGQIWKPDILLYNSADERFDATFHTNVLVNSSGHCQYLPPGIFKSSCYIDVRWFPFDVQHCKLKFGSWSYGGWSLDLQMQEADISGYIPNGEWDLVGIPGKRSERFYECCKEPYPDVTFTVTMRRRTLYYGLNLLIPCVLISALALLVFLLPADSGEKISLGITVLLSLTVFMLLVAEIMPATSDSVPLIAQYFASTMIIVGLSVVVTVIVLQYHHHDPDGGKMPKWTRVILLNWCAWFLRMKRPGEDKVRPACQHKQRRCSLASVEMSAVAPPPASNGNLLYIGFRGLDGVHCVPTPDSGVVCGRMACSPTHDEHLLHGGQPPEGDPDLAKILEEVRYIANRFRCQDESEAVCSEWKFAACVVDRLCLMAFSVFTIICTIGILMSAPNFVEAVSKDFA

SMILES | effect of α7 selective antagonist on the agonist plus modulator calcium response | calcium response, agonist alone (absence of allosteric modulator, FIG. 3)
CCN1C[C@]2(COC(=O)c3ccccc3N3C(=O)C[C@H](C)C3=O)CC[C@H](OC)[C@@]34[C@@H]5C[C@H]6[C@H](OC)[C@@H]5[C@](O)(C[C@@H]6OC)[C@@](O)([C@@H](OC)[C@H]23)[C@@H]14 [methyllycaconitine] | abolished response | –
CN1CC2CN(c3ccc(-c4ccccc4)nn3)CC2C1 (centres unmarked) | – | did not trigger calcium responses
